For experiment [1], the target named is T1, Thioredoxin reductase 1, cytoplasmic (Rattus norvegicus, UniProt O89049).
T1 sequence (O89049 whole entry): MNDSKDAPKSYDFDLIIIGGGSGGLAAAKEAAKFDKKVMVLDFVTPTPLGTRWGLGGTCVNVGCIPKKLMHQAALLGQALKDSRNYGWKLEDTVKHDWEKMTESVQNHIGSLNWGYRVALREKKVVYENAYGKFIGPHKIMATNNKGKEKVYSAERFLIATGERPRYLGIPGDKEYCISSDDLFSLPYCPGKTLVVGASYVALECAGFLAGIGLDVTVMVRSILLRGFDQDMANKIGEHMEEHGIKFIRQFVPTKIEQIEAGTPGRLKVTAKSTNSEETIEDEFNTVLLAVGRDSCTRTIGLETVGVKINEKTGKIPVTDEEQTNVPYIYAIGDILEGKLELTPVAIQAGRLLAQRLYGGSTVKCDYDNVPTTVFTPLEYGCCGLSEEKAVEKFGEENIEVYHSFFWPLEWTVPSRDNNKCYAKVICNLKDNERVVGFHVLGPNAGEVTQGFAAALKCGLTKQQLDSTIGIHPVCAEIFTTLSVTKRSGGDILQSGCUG

In experiment [2] the target is Thioredoxin reductase 2, mitochondrial (Rattus norvegicus, UniProt Q9Z0J5).
Chain of Thioredoxin reductase 2, mitochondrial (Q9Z0J5 whole entry): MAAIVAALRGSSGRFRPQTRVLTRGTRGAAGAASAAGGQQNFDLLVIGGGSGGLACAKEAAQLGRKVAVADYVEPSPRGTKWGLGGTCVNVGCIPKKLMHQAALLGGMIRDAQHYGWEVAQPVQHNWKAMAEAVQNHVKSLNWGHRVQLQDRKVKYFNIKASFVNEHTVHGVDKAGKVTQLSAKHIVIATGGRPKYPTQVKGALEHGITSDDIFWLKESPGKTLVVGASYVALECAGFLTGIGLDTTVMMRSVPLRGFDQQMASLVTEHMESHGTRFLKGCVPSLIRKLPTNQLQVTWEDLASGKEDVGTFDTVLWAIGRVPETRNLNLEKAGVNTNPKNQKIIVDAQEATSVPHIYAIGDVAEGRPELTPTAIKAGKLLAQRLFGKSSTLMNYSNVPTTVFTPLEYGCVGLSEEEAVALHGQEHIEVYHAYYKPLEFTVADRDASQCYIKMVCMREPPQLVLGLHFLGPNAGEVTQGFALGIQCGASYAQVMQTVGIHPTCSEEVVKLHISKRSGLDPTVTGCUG

The values below come from ChEMBL document CHEMBL1142497, “Emerging protein targets for anticancer metallodrugs: inhibition of thioredoxin reductase and cathepsin B by antitumor ruthenium(II)-arene compounds” (J Med Chem, 2008).

As usually defined, the IC50 is the point on the concentration scale where inhibition reaches its midpoint. The low end stands for higher potency, the high end for lower potency. As for `O=C(O)C1(C(=O)O)CCC1`, the IC50 in experiment [1] and in experiment [2] was > 200 µM each time.
